Results on 13 molecules are retold here after ChEMBL document CHEMBL5226289, “Discovery of natural anti-inflammatory alkaloids: Potential leads for the drug discovery for the treatment of inflammation” (Eur J Med Chem, 2021).

The subject of one assay is J774.1. Kind of assay: Inhibition of NO production in LPS-stimulated mouse J774.1 cells. Type of assay: functional, cell-based.
Assay [1] relates to RAW264.7. Kind of assay: Antiinflammatory activity against mouse RAW264.7 cells assessed as inhibition of cell growth. The class given is functional, cell-based.
Assay [2] deals with T1, Prostaglandin G/H synthase 2 (Homo sapiens, UniProt P35354).
T1 sequence (P35354 whole entry): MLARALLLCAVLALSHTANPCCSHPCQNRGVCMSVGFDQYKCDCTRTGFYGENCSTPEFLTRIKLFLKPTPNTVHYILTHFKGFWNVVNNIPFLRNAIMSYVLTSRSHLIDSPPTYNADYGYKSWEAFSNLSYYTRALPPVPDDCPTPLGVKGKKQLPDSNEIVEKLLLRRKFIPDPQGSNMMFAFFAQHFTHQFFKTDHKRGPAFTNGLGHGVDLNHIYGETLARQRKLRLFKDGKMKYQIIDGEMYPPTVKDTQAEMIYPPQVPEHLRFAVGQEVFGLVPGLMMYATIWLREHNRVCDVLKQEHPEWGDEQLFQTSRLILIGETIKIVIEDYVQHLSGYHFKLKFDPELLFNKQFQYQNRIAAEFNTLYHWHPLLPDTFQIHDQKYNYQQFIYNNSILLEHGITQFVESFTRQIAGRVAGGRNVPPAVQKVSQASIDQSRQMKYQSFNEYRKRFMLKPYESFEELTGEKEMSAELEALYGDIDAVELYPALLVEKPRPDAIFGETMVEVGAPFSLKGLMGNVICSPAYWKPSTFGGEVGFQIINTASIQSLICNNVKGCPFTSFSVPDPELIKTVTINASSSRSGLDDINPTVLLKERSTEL
The assay is described as follows: Inhibition of COX-2 (unknown origin) by colorimetric analysis.

In assay [3] the target is Prostaglandin G/H synthase 1 (Homo sapiens, UniProt P23219). Kind of assay: Inhibition of COX-1 (unknown origin) by colorimetric analysis.
Sequence of Prostaglandin G/H synthase 1 (P23219 whole entry): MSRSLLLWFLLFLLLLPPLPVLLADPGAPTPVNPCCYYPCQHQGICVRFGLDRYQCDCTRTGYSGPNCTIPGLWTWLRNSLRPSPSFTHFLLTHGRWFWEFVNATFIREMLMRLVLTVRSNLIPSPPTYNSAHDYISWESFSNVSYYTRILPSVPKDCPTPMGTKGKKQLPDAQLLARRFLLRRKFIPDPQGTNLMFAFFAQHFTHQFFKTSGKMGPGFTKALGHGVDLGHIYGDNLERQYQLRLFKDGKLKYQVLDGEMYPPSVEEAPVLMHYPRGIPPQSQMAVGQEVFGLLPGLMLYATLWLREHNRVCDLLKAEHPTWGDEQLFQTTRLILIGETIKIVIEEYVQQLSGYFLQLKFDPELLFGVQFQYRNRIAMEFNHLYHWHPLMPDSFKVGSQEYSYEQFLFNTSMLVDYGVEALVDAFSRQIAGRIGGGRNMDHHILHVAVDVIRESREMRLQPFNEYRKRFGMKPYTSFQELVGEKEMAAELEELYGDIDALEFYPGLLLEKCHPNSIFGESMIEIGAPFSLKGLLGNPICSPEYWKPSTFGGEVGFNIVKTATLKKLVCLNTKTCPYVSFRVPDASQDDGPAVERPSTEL
The nature of assay [4]: Inhibition of TNF-alpha production in LPS-stimulated human PBMC cells. The class given is functional, cell-based.
Assay [5] can be described thus: Inhibition of IL6 production in LPS-stimulated human PBMC cells. The class given is functional, cell-based.
Assay [6] deals with RAW264.7. The assay is described as follows: Inhibition of NO production in LPS-stimulated mouse RAW264.7 cells preincubated with compound for 1 hrs followed by LPS stimulation and measured after 24 hrs by Griess reagent-based assay. Type of assay: functional, cell-based. A general note: Nitrite, measured by Griess reagent, commonly stands in for NO production.
In assay [7] the test system is Mus musculus. The assay is described as follows: Prevention of LPS-induced mortality in C57BL/6 mouse model at 30 mg/kg, ip measured after 5 days relative to control. The class given is functional. Conditions: time 5 day.
Assay [8] has as its system Mus musculus. The assay is described as follows: Antiinflammatory activity in Swiss Webster albino mouse assessed as inhibition of carrageenan-induced paw edema at 75 mg/kg, ip preadministered for 1 hrs followed by carrageenan induction and measured after 3 hrs by plethysmometer relative to control. The class given is functional. The conditions noted are these: time 4 hrs. (The carrageenan paw model is a standard test of acute inflammation.)

In assay [9] the test system is Mus musculus. Kind of assay: Analgesic activity in Swiss Webster albino mouse assessed as inhibition of acetic acid-induced writhing at 125 mg/kg, po pre-treated for 30 mins followed by acetic acid induction and measured for 15 mins relative to control. The class given is functional. The conditions noted are these: 0.75 h, time 45 min. (In general: Writhing tests count abdominal constrictions after an irritant is injected.)

Assay [10] deals with RAW264.7. Kind of assay: Antiinflammatory activity in mouse RAW264.7 cells assessed as inhibition of LPS-stimulated iNOS activity preincubated with compound for 24 hrs followed by LPS stimulation for 2 hrs and measured 2 hrs after NADPH addition by fluorescence based assay. Type of assay: functional, cell-based.
Assay [11] relates to RAW264.7. The assay is described as follows: Inhibition of NO production in LPS-stimulated mouse RAW264.7 cells preincubated with compound for 24 hrs followed by LPS stimulation and measured after 2 hrs by Griess reagent-based assay. Type of assay: functional, cell-based.
The subject of a further assay is Rattus norvegicus. The assay is described as follows: Antiinflammatory activity in Wistar rat assessed as inhibition of carrageenan-induced hind paw edema at 50 mg/kg, po pre-treated for 1 hrs followed by carrageenan administration and measured after 3 hrs by plethysmometer relative to control. The class given is functional. Conditions: time 4 hrs.
In assay [12] the test system is Mus musculus. The assay is described as follows: Antiinflammatory activity in mouse assessed as inhibition of xylene-induced ear edema at 8 mg/kg, ip pre-treated for 30 mins followed by xylene administration and measured after 1 hrs relative to control. Type of assay: functional. Conditions: time 1.5 hrs.
Assay [13] addresses T2, Polyunsaturated fatty acid 5-lipoxygenase (Homo sapiens) (UniProt P09917).
T2 sequence (whole entry): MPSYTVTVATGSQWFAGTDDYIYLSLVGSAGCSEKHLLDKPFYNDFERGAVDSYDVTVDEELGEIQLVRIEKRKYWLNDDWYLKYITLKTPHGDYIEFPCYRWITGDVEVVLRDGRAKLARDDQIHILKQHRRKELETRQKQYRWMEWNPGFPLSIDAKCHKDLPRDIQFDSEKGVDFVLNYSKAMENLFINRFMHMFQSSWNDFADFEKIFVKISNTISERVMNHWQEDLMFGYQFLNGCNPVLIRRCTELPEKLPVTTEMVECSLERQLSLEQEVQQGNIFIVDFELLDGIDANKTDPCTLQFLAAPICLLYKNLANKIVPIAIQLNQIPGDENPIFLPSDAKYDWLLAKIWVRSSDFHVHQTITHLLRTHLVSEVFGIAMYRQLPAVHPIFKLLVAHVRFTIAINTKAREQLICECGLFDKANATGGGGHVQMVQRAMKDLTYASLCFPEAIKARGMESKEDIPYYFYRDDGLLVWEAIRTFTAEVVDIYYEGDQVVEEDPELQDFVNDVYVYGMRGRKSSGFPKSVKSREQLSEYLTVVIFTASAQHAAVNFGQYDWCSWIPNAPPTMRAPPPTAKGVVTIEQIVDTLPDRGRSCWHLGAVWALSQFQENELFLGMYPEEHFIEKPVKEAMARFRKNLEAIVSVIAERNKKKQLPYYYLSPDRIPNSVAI
Kind of assay: Inhibition of 5-LOX (unknown origin) at 100 uM measured after 5 mins by colorimetric method relative to control.

Assay [14] relates to RAW264.7. The assay is described as follows: Inhibition of NO production in LPS-stimulated mouse RAW264.7 cells preincubated with compound for 3 hrs followed by LPS stimulation and measured after 20 hrs by Griess reagent-based assay. Type of assay: functional, cell-based.
A short description of assay [15]: Inhibition of LPS-induced NO production in mouse BV-2 cells […]. Type of assay: functional, cell-based.
The nature of assay [16]: Antiinflammatory activity in rat polymorphonuclear leucocyte cells assessed as inhibition of PAF-induced beta-glucuronidase release at 10 uM preincubated for 20 mins followed by PAF addition relative to control. Type of assay: functional.

Values after ≈ are worked out from the molar mass of the structure shown.

With `COC(=O)[C@@]1(O)C2=Nc3c(O)cccc3[C@@]23C[C@H]2C[C@]4(C(C)=O)ON2[C@H]3C[C@H]14`, the IC50 in the assay with J774.1 came to 49.2 µM; in the assay with RAW264.7 [1] it was 39.6 µM.
For the molecule `CC(C)CC(=O)NC[C@H]1CC[C@H](NC(=O)c2nc3ccccc3cc2O)[C@H](O)O1`, the IC50 in assay [2] was 1.4 µM; in assay [3], 4.9 µM.
In the case of `COc1ccc2c(c1)[nH]c1c3c(c(C)cc12)OC(C)(C)C=C3`, the IC50 in assay [4] turned out to be 9.4 µM; in assay [5] it was 8.4 µM.
For the molecule `O=C1NCCc2c1[nH]c1ccc(O)cc21`, in the assay with RAW264.7 [6], the IC50 amounted to 31.9 µM.
As for `COc1ccc2c(c1)[nH]c1c(/C=C/C(=O)O)nccc12`, the Activity with Mus musculus [7] worked out at 12.5%.
In the case of `O=C1Oc2c(c3c(O)cc(O)cc3n2-c2ccc(O)cc2)C(=O)Oc2c1c1c(O)cc(O)cc1n2-c1ccc(O)cc1`, the inhibition in vivo at 75 mg/kg in the assay on Mus musculus [8] was 57.1%. For the same molecule, in the assay on Mus musculus [9], the inhibition in vivo at 125 mg/kg turned out to be 49.4%.
Regarding `CC(C)CC(=O)NC[C@H](O)CC[C@@H](CO)NC(=O)c1nc2ccccc2cc1O`, the IC50 came to 2.1 µM in [2] and 7.6 µM in assay [3].
Regarding `C=CC(C)(C)c1[nH]c2cc3c(cc2c1/C=C1\NC(=O)[C@@H]2CCCN2C1=O)C=CC(C)(C)O3`, the IC50 in the assay on RAW264.7 [10] stood at 5.4 µM; in the assay with RAW264.7 [11], 11.2 µM.
Regarding `COc1ccc2c(OC)c3ccoc3nc2c1` [EVOLITRINE], the inhibition in vivo at 50 mg/kg in the assay on Rattus norvegicus came out at 62%.
On to `C/C=C1/CN2CC[C@@H]1[C@@](CO)(C(=O)OC)c1[nH]c3ccccc3c1C2`, for which the inhibition in vivo at 8 mg/kg in the assay with Mus musculus [12] stood at 40.3%. The molecule further had an inhibition in [13] of 60.8%.
For `C=C1C=C2C=C[C@H](OC)C[C@@]23c2cc4c(cc2[C@@H](O)CN13)OCO4`, the IC50 in the assay on RAW264.7 [14] is 3.4 µg/mL (≈ 10.4 µM).
`CC(C)=CCOc1ccc(CCNC(=O)c2ccccc2)cc1`: inhibition in [15] was half-maximal at 4.9 µM (IC50).
Regarding `COC1O[C@H]([C@@H]2c3cc4c(cc3CCN2C)OCO4)c2ccc3c(c21)OCO3` (stereo not given in full), the inhibition at 10 µM in assay [16] was 32.4%.

Usually IC50 stands for the concentration that inhibits the measured activity by half. By inhibition in vivo is commonly meant how much of the control response was suppressed. One may read the inhibition as the relative decrease from the control value, in per cent.
